Results from patent publication US20260158102A1, “CYCLIC PEPTIDE DERIVATIVE COMPOSITION FOR TREATING OR PREVENTING NEUROPATHIC PAIN AND/OR INFLAMMATORY PAIN” (DKS Co. Ltd., priority 2022, published 2026).

Legend:
[1] = Body weight measurement in rat STZ-induced diabetes model; type: in vivo; details: mean ± SE, in g (unit assumed)
Experimental: (§1) Compound 9 (50 mg/mL) was diluted with water for injection to obtain a 1 mg/mL administration specimen. For the specimens to be administered at 0.1 mg/mL and 0.01 mg/mL, the specimen to be administered at 1 mg/mL was diluted stepwise with water for injection. Each administration specimen was divided into PP disposable tubes every day and stored in a storehouse (freezer: MDF-MU339H-PJ, PHC Corporation) under the condition of freezing (−30° C. to −20° C., measured value: −26.4 to −24.5° C.). Preparation was performed on the day before the start of administration.
(§2) Water for injection was added to and dissolved in Pregabalin taken out from the capsule to obtain 2 mg/mL. It was prepared before use.
(§3) • Animal species: rat (SPF) • Strain: Crl: CD (SD) • Date of animal acquisition, gender, age in weeks, number of animals acquired, and weight range after 1 day of acquisition • First and second courses: Apr. 6, 2022, male, 7 weeks old, 35 animals, 217 to 237 g • Third and fourth courses: Apr. 13, 2022, male, 7 weeks old, 35 animals, 216 to 235 g • Source: […].
(§4) • Dose volume: calculated at 2 mL/kg based on the body weight on the day of administration. • Number of times of administration: once • Day of administration: 7 days before the day of starting administration of the test substance.
(§5) • Dose volume: calculated at 1 mL/kg based on the body weight on the day of administration. • Number of times of administration: 9 times • Interval of administration: once every 3 days (evaluation was performed on the day after administration) • Day of starting administration: day 8 of STZ administration (day of STZ administration is counted as day 1).
(§6) • Dose volume: calculated at 10 mL/kg based on the body weight on the day of administration. • Number of times of administration: Administration was performed once on the day of evaluation of neuropathic pain, twice in total, and on the other days of administration, a vehicle for a control substance (water for injection) was orally administered.
• Measurement was performed every day after the day of STZ administration.
(§7) The mean and standard error of each group were calculated for the 50% withdrawal threshold, body weight, and blood glucose level.
(§8) The body weight was an integer.
(§9) No significant difference test of body weight and blood glucose levels was performed.

[2] = Measurement of blood glucose level in rat STZ-induced diabetes model; type: in vivo; details: mean ± SE
Experimental: as §1, §2, §3, §4, §5, §6
On days 7 and 35 of STZ administration, about 50 μL of blood was collected from the tail vein using a winged injection needle (Terumo Corporation) equipped with a heparinized capillary (DRUMMOND […]).
The blood obtained above was centrifuged [centrifugal conditions: 4° C., 3,000 rpm (×2,150 g), 15 min] with a centrifuge (CF 9RX, Hitachi Koki Co., Ltd.) to obtain plasma. Blood glucose levels of a part of plasma obtained by blood collection on day 7 and day 35 after STZ administration were measured by hexokinase G-6 PDH method (L-type Wako Glu2, FUJIFILM Wako Pure Chemical Corporation) using a biochemical automatic analyzer (AU480, Beckman Coulter, Inc.). […] The plasma after the measurement was discarded.
as §7, §8, §9

CC[C@@]1(C)Oc2cc(ccc2O)C[C@H](NC)C(=O)N[C@@H](C(C)C)C(=O)N[C@@H]1C(=O)N[C@@H](CC(=O)O)C(=O)O [Compound 9]
Body weight ([1]; 0.01 mg/kg iv, day 1 of STZ administration): 295 ± 5
Body weight ([1]; 0.01 mg/kg iv, day 2 of STZ administration): 281 ± 4
Body weight ([1]; 0.01 mg/kg iv, day 3 of STZ administration): 277 ± 4
Body weight ([1]; 0.01 mg/kg iv, day 4 of STZ administration): 280 ± 5
Body weight ([1]; 0.01 mg/kg iv, day 5 of STZ administration): 282 ± 5
Body weight ([1]; 0.01 mg/kg iv, day 6 of STZ administration): 287 ± 5
Body weight ([1]; 0.01 mg/kg iv, day 7 of STZ administration): 291 ± 5
Body weight ([1]; 0.01 mg/kg iv, day 8 of STZ administration): 290 ± 6
Body weight ([1]; 0.01 mg/kg iv, day 9 of STZ administration): 292 ± 5
Body weight ([1]; 0.01 mg/kg iv, day 10 of STZ administration): 297 ± 6
Body weight ([1]; 0.01 mg/kg iv, day 11 of STZ administration): 298 ± 6
Body weight ([1]; 0.01 mg/kg iv, day 12 of STZ administration): 302 ± 7
Body weight ([1]; 0.01 mg/kg iv, day 13 of STZ administration): 304 ± 6
Body weight ([1]; 0.01 mg/kg iv, day 14 of STZ administration): 306 ± 7
Body weight ([1]; 0.01 mg/kg iv, day 15 of STZ administration): 306 ± 8
Body weight ([1]; 0.01 mg/kg iv, day 16 of STZ administration): 307 ± 8
Body weight ([1]; 0.01 mg/kg iv, day 17 of STZ administration): 309 ± 8
Body weight ([1]; 0.01 mg/kg iv, day 18 of STZ administration): 311 ± 8
Body weight ([1]; 0.01 mg/kg iv, day 19 of STZ administration): 309 ± 8
Body weight ([1]; 0.01 mg/kg iv, day 20 of STZ administration): 312 ± 8
Body weight ([1]; 0.01 mg/kg iv, day 21 of STZ administration): 312 ± 8
Body weight ([1]; 0.01 mg/kg iv, day 22 of STZ administration): 311 ± 9
Body weight ([1]; 0.01 mg/kg iv, day 23 of STZ administration): 312 ± 9
Body weight ([1]; 0.01 mg/kg iv, day 24 of STZ administration): 310 ± 9
Body weight ([1]; 0.01 mg/kg iv, day 25 of STZ administration): 312 ± 10
Body weight ([1]; 0.01 mg/kg iv, day 26 of STZ administration): 315 ± 10
Body weight ([1]; 0.01 mg/kg iv, day 27 of STZ administration): 308 ± 10
Body weight ([1]; 0.01 mg/kg iv, day 28 of STZ administration): 312 ± 10
Body weight ([1]; 0.01 mg/kg iv, day 29 of STZ administration): 311 ± 11
Body weight ([1]; 0.01 mg/kg iv, day 30 of STZ administration): 313 ± 11
Body weight ([1]; 0.01 mg/kg iv, day 31 of STZ administration): 309 ± 11
Body weight ([1]; 0.01 mg/kg iv, day 32 of STZ administration): 310 ± 12
Body weight ([1]; 0.01 mg/kg iv, day 33 of STZ administration): 308 ± 12
Body weight ([1]; 0.01 mg/kg iv, day 34 of STZ administration): 313 ± 12
Body weight ([1]; 0.1 mg/kg iv, day 1 of STZ administration): 293 ± 4
Body weight ([1]; 0.1 mg/kg iv, day 2 of STZ administration): 279 ± 5
Body weight ([1]; 0.1 mg/kg iv, day 3 of STZ administration): 275 ± 5
Body weight ([1]; 0.1 mg/kg iv, day 4 of STZ administration): 277 ± 6
Body weight ([1]; 0.1 mg/kg iv, day 5 of STZ administration): 280 ± 5
Body weight ([1]; 0.1 mg/kg iv, day 6 of STZ administration): 285 ± 5
Body weight ([1]; 0.1 mg/kg iv, day 7 of STZ administration): 289 ± 5
Body weight ([1]; 0.1 mg/kg iv, day 8 of STZ administration): 287 ± 5
Body weight ([1]; 0.1 mg/kg iv, day 9 of STZ administration): 292 ± 5
Body weight ([1]; 0.1 mg/kg iv, day 10 of STZ administration): 295 ± 6
Body weight ([1]; 0.1 mg/kg iv, day 11 of STZ administration): 298 ± 6
Body weight ([1]; 0.1 mg/kg iv, day 12 of STZ administration): 300 ± 4
Body weight ([1]; 0.1 mg/kg iv, day 13 of STZ administration): 303 ± 6
Body weight ([1]; 0.1 mg/kg iv, day 14 of STZ administration): 305 ± 5
Body weight ([1]; 0.1 mg/kg iv, day 15 of STZ administration): 300 ± 6
Body weight ([1]; 0.1 mg/kg iv, day 16 of STZ administration): 302 ± 7
Body weight ([1]; 0.1 mg/kg iv, day 17 of STZ administration): 307 ± 7
Body weight ([1]; 0.1 mg/kg iv, day 18 of STZ administration): 305 ± 7
Body weight ([1]; 0.1 mg/kg iv, day 19 of STZ administration): 310 ± 8
Body weight ([1]; 0.1 mg/kg iv, day 20 of STZ administration): 312 ± 8
Body weight ([1]; 0.1 mg/kg iv, day 21 of STZ administration): 307 ± 7
Body weight ([1]; 0.1 mg/kg iv, day 22 of STZ administration): 311 ± 7
Body weight ([1]; 0.1 mg/kg iv, day 23 of STZ administration): 314 ± 8
Body weight ([1]; 0.1 mg/kg iv, day 24 of STZ administration): 312 ± 7
Body weight ([1]; 0.1 mg/kg iv, day 25 of STZ administration): 312 ± 7
Body weight ([1]; 0.1 mg/kg iv, day 26 of STZ administration): 312 ± 7
Body weight ([1]; 0.1 mg/kg iv, day 27 of STZ administration): 310 ± 8
Body weight ([1]; 0.1 mg/kg iv, day 28 of STZ administration): 315 ± 8
Body weight ([1]; 0.1 mg/kg iv, day 29 of STZ administration): 311 ± 7
Body weight ([1]; 0.1 mg/kg iv, day 30 of STZ administration): 313 ± 8
Body weight ([1]; 0.1 mg/kg iv, day 31 of STZ administration): 310 ± 8
Body weight ([1]; 0.1 mg/kg iv, day 32 of STZ administration): 312 ± 8
Body weight ([1]; 0.1 mg/kg iv, day 33 of STZ administration): 308 ± 8
Body weight ([1]; 1 mg/kg iv, day 1 of STZ administration): 293 ± 5
Body weight ([1]; 1 mg/kg iv, day 2 of STZ administration): 282 ± 6
Body weight ([1]; 1 mg/kg iv, day 3 of STZ administration): 277 ± 4
Body weight ([1]; 1 mg/kg iv, day 4 of STZ administration): 279 ± 4
Body weight ([1]; 1 mg/kg iv, day 5 of STZ administration): 284 ± 5
Body weight ([1]; 1 mg/kg iv, day 6 of STZ administration): 286 ± 5
Body weight ([1]; 1 mg/kg iv, day 7 of STZ administration): 291 ± 5
Body weight ([1]; 1 mg/kg iv, day 8 of STZ administration): 290 ± 5
Body weight ([1]; 1 mg/kg iv, day 9 of STZ administration): 291 ± 5
Body weight ([1]; 1 mg/kg iv, day 10 of STZ administration): 294 ± 6
Body weight ([1]; 1 mg/kg iv, day 11 of STZ administration): 300 ± 7
Body weight ([1]; 1 mg/kg iv, day 12 of STZ administration): 299 ± 6
Body weight ([1]; 1 mg/kg iv, day 13 of STZ administration): 303 ± 6
Body weight ([1]; 1 mg/kg iv, day 14 of STZ administration): 302 ± 6
Body weight ([1]; 1 mg/kg iv, day 15 of STZ administration): 303 ± 7
Body weight ([1]; 1 mg/kg iv, day 16 of STZ administration): 303 ± 8
Body weight ([1]; 1 mg/kg iv, day 17 of STZ administration): 305 ± 8
Body weight ([1]; 1 mg/kg iv, day 18 of STZ administration): 306 ± 7
Body weight ([1]; 1 mg/kg iv, day 19 of STZ administration): 307 ± 7
Body weight ([1]; 1 mg/kg iv, day 20 of STZ administration): 305 ± 9
Body weight ([1]; 1 mg/kg iv, day 21 of STZ administration): 304 ± 8
Body weight ([1]; 1 mg/kg iv, day 22 of STZ administration): 309 ± 8
Body weight ([1]; 1 mg/kg iv, day 23 of STZ administration): 309 ± 9
Body weight ([1]; 1 mg/kg iv, day 24 of STZ administration): 311 ± 9
Body weight ([1]; 1 mg/kg iv, day 25 of STZ administration): 309 ± 9
Body weight ([1]; 1 mg/kg iv, day 26 of STZ administration): 311 ± 9
Body weight ([1]; 1 mg/kg iv, day 27 of STZ administration): 308 ± 9
Body weight ([1]; 1 mg/kg iv, day 28 of STZ administration): 309 ± 9
Body weight ([1]; 1 mg/kg iv, day 29 of STZ administration): 310 ± 9
Body weight ([1]; 1 mg/kg iv, day 30 of STZ administration): 308 ± 10
Body weight ([1]; 1 mg/kg iv, day 31 of STZ administration): 306 ± 9
Body weight ([1]; 1 mg/kg iv, day 32 of STZ administration): 309 ± 10
Body weight ([1]; 1 mg/kg iv, day 33 of STZ administration): 308 ± 10
Blood glucose level, Glu ([2]; 0.01 mg/kg iv group, day 7 of STZ administration (before start of dosing)): 581.8 ± 18.5 mg/dL
Blood glucose level, Glu ([2]; 0.01 mg/kg iv, day 35 of STZ administration): 623.6 ± 22.0 mg/dL
Blood glucose level, Glu ([2]; 0.1 mg/kg iv group, day 7 of STZ administration (before start of dosing)): 576.3 ± 15.5 mg/dL
Blood glucose level, Glu ([2]; 0.1 mg/kg iv, day 35 of STZ administration): 608.4 ± 32.7 mg/dL
Blood glucose level, Glu ([2]; 1 mg/kg iv group, day 7 of STZ administration (before start of dosing)): 562.7 ± 14.7 mg/dL
Blood glucose level, Glu ([2]; 1 mg/kg iv, day 35 of STZ administration): 605.6 ± 18.9 mg/dL
